Results reported in the NIST ThermoML archive (doi:10.1021/acs.jced.9b00414).
Numbers after ± are expanded uncertainties.

Conditions: Liquid, Ebulliometric method (Recirculating still)

Structure (SMILES): CCO [ethanol]
- vapor or sublimation pressure (351.45 K): 101.3 ± 1.2 kPa

Structure (SMILES): CCCCOC(=O)CCC [butyl butanoate]
- vapor or sublimation pressure (438.28 K): 101.3 ± 1.2 kPa

Structure (SMILES): COC(=O)OC [dimethyl carbonate]
- vapor or sublimation pressure (363.36 K): 101.3 ± 1.2 kPa

Structure (SMILES): Cc1ccccc1C [1,2-dimethylbenzene]
- vapor or sublimation pressure (417.43 K): 101.3 ± 1.2 kPa

Structure (SMILES): O=C1CCCCC1 [cyclohexanone]
- vapor or sublimation pressure (428.57 K): 101.3 ± 1.2 kPa
